Assays:
Type in all cases: cell-based
Details in all cases: fluorescent calcium assay
[1] = biological target: TRPML1 (Homo sapiens, UniProt Q9GZU1); test: Fluorescent TRPML1 assay (Fluo4-AM calcium fluorescence in doxycycline-induced HEK-293 Trex cells)
Procedure, shortened: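 First, expression of surface-targeted mutant human TRPML1 is induced in HEK-293 Trex cells with 0.5 ug/mL doxycycline the day before. Next, cells take up 1 micromolar Fluo4-AM in Ringer's with 0.1% Pluronic. Finally, they are added to compounds (6 nanomolar–20 micromolar final) in 10 mM calcium Ringer's and fluorescence is read.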

[2] = biological target: T1, TRPML2 (Homo sapiens, UniProt Q8IZK6); test: Fluorescent TRPML2 assay (performed as for TRPML1, substituting the TRPML2 subtype)
T1 construct: expressed in transfected cells
T1 sequence (Q8IZK6 1-566): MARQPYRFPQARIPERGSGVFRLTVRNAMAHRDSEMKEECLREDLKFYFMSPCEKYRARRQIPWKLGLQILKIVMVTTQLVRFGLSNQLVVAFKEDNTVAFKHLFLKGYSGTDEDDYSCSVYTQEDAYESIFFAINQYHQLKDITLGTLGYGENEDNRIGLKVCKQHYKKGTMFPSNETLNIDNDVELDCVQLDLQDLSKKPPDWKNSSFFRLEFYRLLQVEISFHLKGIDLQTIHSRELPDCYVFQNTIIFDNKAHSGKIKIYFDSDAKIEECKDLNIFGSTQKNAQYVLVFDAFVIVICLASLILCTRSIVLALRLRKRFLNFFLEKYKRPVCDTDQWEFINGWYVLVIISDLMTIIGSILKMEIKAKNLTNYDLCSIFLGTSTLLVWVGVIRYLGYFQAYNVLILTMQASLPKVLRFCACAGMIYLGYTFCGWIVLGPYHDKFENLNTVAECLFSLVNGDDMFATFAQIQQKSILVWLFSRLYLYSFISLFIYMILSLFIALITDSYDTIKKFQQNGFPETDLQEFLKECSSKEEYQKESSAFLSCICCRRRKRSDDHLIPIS
Procedure, shortened: (§1)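 HEK-293 Trex cells with doxycycline-induced (0.5 ug/mL) surface-directed human TRPML subtype, loaded with 1 μM Fluo4-AM, resuspended in Ringer's with 10 mM calcium. Compounds at 20 μM to 6 nM final in half-log steps, triplicate; fluorescence ex 480/em 540; EC50 by non-linear regression versus plate controls.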

[3] = biological target: T2, TRPML3 (Homo sapiens, UniProt Q8TDD5); test: Fluorescent TRPML3 assay (performed as for TRPML1, substituting the TRPML3 subtype)
T2 construct: expressed in transfected cells
T2 sequence (Q8TDD5 1-553): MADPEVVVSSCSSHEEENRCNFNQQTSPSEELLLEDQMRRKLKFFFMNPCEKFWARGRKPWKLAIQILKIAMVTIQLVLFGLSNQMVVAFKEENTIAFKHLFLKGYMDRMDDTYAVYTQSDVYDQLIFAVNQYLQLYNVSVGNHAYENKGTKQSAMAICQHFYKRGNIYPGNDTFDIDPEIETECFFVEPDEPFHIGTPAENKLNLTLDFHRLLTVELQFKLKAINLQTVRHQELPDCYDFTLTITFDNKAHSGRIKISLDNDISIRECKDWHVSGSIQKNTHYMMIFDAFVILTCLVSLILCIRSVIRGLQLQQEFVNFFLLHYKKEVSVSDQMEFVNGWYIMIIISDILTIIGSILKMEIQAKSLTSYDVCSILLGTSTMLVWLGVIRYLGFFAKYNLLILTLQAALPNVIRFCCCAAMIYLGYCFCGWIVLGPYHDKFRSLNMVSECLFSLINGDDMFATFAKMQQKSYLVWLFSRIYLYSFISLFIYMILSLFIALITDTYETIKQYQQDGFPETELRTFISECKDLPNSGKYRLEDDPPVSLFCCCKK
Procedure, shortened: as §1

TRPML1, sequence (Q9GZU1 whole entry L15A/L16A/L577A/L578A, form open): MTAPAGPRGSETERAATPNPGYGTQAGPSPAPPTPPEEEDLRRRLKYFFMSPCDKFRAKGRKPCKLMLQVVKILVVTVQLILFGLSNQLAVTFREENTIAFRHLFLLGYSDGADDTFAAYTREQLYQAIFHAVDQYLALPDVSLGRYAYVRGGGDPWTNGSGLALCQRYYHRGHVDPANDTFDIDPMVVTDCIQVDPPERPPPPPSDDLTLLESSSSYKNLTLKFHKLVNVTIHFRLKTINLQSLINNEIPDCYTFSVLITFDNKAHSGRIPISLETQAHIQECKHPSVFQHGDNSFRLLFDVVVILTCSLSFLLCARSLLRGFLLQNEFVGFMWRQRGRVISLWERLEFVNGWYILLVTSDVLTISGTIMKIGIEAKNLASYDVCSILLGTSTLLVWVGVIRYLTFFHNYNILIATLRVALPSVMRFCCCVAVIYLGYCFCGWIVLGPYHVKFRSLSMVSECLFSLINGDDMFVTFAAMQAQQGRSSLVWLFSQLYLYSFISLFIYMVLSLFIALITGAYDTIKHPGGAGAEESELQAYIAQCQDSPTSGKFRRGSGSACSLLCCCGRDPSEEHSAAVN

Row | Compound | EC50 [1] | EC50 [2] | EC50 [3]
1 | C[C@H]1CN(C(=O)OC(C)(C)C(F)(F)F)CCN1c1ncnc2c1c(C1CC1)cn2-c1cccc(Cl)c1 [Compound 140, 1,1,1-trifluoro-2-methylpropan-2-yl (S)-4-(7-(3-chlorophenyl)-5-cyclopropyl-7H-pyrrolo[2,3-d]pyrimidin-4-yl)-3-methylpiperazine-1-carboxylate] | < 100 nM | < 100 nM | < 100 nM
2 | C[C@@H]1CN(C(=O)OC(C)(C)C(F)(F)F)CCN1c1ncnc2c1c(C1CC1)cn2-c1ccc(Cl)cc1 [Compound 141, 1,1,1-trifluoro-2-methylpropan-2-yl (R)-4-(7-(4-chlorophenyl)-5-cyclopropyl-7H-pyrrolo[2,3-d]pyrimidin-4-yl)-3-methylpiperazine-1-carboxylate] | < 100 nM | 100 to 500 nM | < 100 nM
3 | C[C@@H]1CN(c2ncnc3c2c(-c2ccccc2F)cn3-c2cccnc2)[C@@H](C)CN1C(=O)OC(C)(C)C [Compound 142, tert-butyl (2R,5S)-4-(5-(2-fluorophenyl)-7-(pyridin-3-yl)-7H-pyrrolo[2,3-d]pyrimidin-4-yl)-2,5-dimethylpiperazine-1-carboxylate] | < 100 nM | 500 to 2000 nM | < 100 nM
4 | CCOC(=O)N1C[C@H](C)N(c2ncnc3c2c(-c2ccccc2F)cn3-c2cccnc2)C[C@H]1C [Compound 143, ethyl (2R,5S)-4-(5-(2-fluorophenyl)-7-(pyridin-3-yl)-7H-pyrrolo[2,3-d]pyrimidin-4-yl)-2,5-dimethylpiperazine-1-carboxylate] | 100 to 500 nM | > 2000 nM | 500 to 2000 nM
5 | CCOC(=O)N1C[C@H](C)N(c2ncnc3c2c(-c2ccccc2F)cn3-c2cc(C)ccn2)C[C@H]1C [Compound 144, ethyl (2R,5S)-4-(5-(2-fluorophenyl)-7-(4-methylpyridin-2-yl)-7H-pyrrolo[2,3-d]pyrimidin-4-yl)-2,5-dimethylpiperazine-1-carboxylate] | < 100 nM | 500 to 2000 nM | < 100 nM
6 | CC(C)(C)OC(=O)N1CCN(c2ncnc3c2c(C2CC2)cn3-c2ccc(Cl)c(F)c2)CC1 [Compound 145, tert-butyl 4-(7-(4-chloro-3-fluorophenyl)-5-cyclopropyl-7H-pyrrolo[2,3-d]pyrimidin-4-yl)piperazine-1-carboxylate] | 100 to 500 nM | < 100 nM | < 100 nM
7 | CC(C)(C)OC(=O)N1CCN(c2ncnc3c2c(C2CC2)cn3-c2cc(F)cc(F)c2)CC1 [Compound 146, tert-butyl 4-(5-cyclopropyl-7-(3,5-difluorophenyl)-7H-pyrrolo[2,3-d]pyrimidin-4-yl)piperazine-1-carboxylate] | 100 to 500 nM | 100 to 500 nM | < 100 nM
8 | C[C@@H]1CN(C(=O)OC(C)(C)C)CCN1c1ncnc2c1c(C1CC1)cn2-c1ccc(Cl)cc1 [Compound 147, tert-butyl (R)-4-(7-(4-chlorophenyl)-5-cyclopropyl-7H-pyrrolo[2,3-d]pyrimidin-4-yl)-3-methylpiperazine-1-carboxylate] | 100 to 500 nM | 100 to 500 nM | < 100 nM
9 | C[C@H]1CN(C(=O)OC(C)(C)C(F)(F)F)CCN1c1ncnc2c1c(C1CC1)cn2-c1ccc(Cl)cc1 [Compound 148, 1,1,1-trifluoro-2-methylpropan-2-yl (S)-4-(7-(4-chlorophenyl)-5-cyclopropyl-7H-pyrrolo[2,3-d]pyrimidin-4-yl)-3-methylpiperazine-1-carboxylate] | < 100 nM | 100 to 500 nM | < 100 nM
10 | Cc1cncc(-n2cc(C3CC3)c3c(N4CCN(C(=O)OC(C)(C)C)CC4)ncnc32)c1 [Compound 149, tert-butyl 4-(5-cyclopropyl-7-(5-methylpyridin-3-yl)-7H-pyrrolo[2,3-d]pyrimidin-4-yl)piperazine-1-carboxylate] | 100 to 500 nM | 500 to 2000 nM | 100 to 500 nM
